Values of other authors in patent US20070105793A1, “Compositions and methods using nicotinic acid for treatment of hypercholesterolemia, hyperlipidemia nd cardiovascular disease” (priority 2005, published 2007).

Columns and labels:
[1] = after ingestion
[2] = in vivo
[3] = system: β-thromboglobulin; conditions: in vivo

| SMILES | time of release of niacin into the system by hydrolysis [1] | flush [2] | impact on blood sugar [2] | effect on β-thromboglobulin [3] |
| --- | --- | --- | --- | --- |
| O=C(O[C@H]1[C@H](OC(=O)c2cccnc2)[C@@H](OC(=O)c2cccnc2)[C@H](OC(=O)c2cccnc2)[C@@H](OC(=O)c2cccnc2)[C@H]1OC(=O)c1cccnc1)c1cccnc1 [IHN, inositol hexanicotinate] | around 10 hours | “zero” flush | no negative impact on blood sugar |  |
| O=C(O)c1cccnc1 [niacin, nicotinic acid] |  |  |  | does not have a favorable effect on β-thromboglobulin |
